According to patent US20050187184A1, “Antineoplastic combinations” (Wyeth, priority 2001, published 2005):
Counter-ions that a name gives are not always drawn.

What was measured:
[1] = system: histologically diverse tumor cells; details: cited from earlier work
[2] = system: human tumor xenografts of diverse histological types; details: nude mice; cited from earlier work
[3] = system: orthotopic glioma; details: nude mice; cited from earlier work
[4] = system: human glioblastoma cell line; details: in vitro; cited from earlier work
[5] = system: human pancreatic tumors; details: several human pancreatic tumors in nude mice; cited from earlier work
[6] = system: breast cancer lines; details: one of two breast cancer lines studied in vivo; cited from earlier work
[7] = system: human colon line GC3; test: human colon (GC3) mouse xenograft test procedure; assay type: in vivo; details: gemcitabine on days 1, 4 and 8 in the first cycle
Method: Female CBA/CaJ mice (Jackson Laboratories, Bar Harbor, Me.), 4 weeks of age, were immune-deprived by thymectomy, followed 3 weeks later by whole-body irradiation (1200 cGy) using a ^137Cs source. Mice received 3×10^6 nucleated bone marrow cells within 6-8 h of irradiation. Tumor pieces of approximately 3 mm^3 were implanted in the space of the dorsal lateral flanks of the mice to initiate tumor growth. Tumor-bearing mice were randomized into groups of seven prior to initiating therapy. Mice bearing tumors each received drug when tumors were approximately 0.20-1 cm in diameter. Tumor size was determined at 7-day intervals using digital Vernier calipers interfaced with a computer. Tumor volumes were calculated assuming tumors to be spherical using the formula [(□/6)×d^3], where d is the mean diameter. CCI-779 was given on a schedule of 5 consecutive days for 2 weeks with this cycle repeated every 21 days for 3 cycles. […] The schedule of the other chemotherapy drug for each study was as follows: • Gemcitabine on days 1, 4, 8 in cycle 1 only The combination of CCI-779 and gemcitabine was evaluated in a human colon (GC3) mouse xenograft test procedure. In this test procedure, CCI-779 was given daily ×5 for 2 consecutive weeks every 21 days for 3 cycles and gemcitabine given on days 1, 4, and 8 in the first cycle only.

Row | SMILES | growth of tumor cells in vitro ([1]; CNS cancer, leukemia (T-cell), breast cancer, prostate cancer and melanoma lines among the most sensitive) | cell cycle effect ([1]; in vitro) | activity against human tumor xenografts [2] | sensitivity of gliomas [2] | activity in orthotopic glioma model [3] | growth factor (platelet-derived)-induced stimulation [4] | tumor growth [5] | tumor growth [6] | tumor response in the first cycle [7]
1 | CO[C@H]1C[C@@H]2CC[C@@H](C)[C@@](O)(O2)C(=O)C(=O)N2CCCC[C@H]2C(=O)O[C@H]([C@H](C)C[C@@H]2CC[C@@H](OC(=O)C(C)(CO)CO)[C@H](OC)C2)CC(=O)[C@H](C)/C=C(\C)[C@@H](O)[C@@H](OC)C(=O)[C@H](C)C[C@H](C)/C=C/C=C/C=C/1C [CCI-779, Rapamycin 42-ester with 3-hydroxy-2-(hydroxymethyl)-2-methylpropionic acid] | inhibit the growth | arrested cells in the G1 phase | has activity | particularly sensitive | active | markedly suppressed | inhibited | inhibited | 
2 | Nc1ccn([C@@H]2O[C@H](CO)[C@@H](O)C2(F)F)c(=O)n1 [gemcitabine, 2′-deoxy-2′,2′-difluorocytidine monohydrochloride ((beta)-isomer)] |  |  |  |  |  |  |  |  | tumor regression
